Experimental data taken from patent US20090042987A1, “TREATMENT OF NEUROPATHIC PAIN” (priority 2007, published 2009).
“Also recorded” adds a separate entry of the source.

Legend:
Format in all cases: in vivo, rat
[1] = system: drug-naïve STZ-diabetic rats; assay: von Frey paw withdrawal thresholds, drug-naïve STZ-diabetic rats, Example 2
Experimental: (§1) Experimental Animals Ethical approval for this study was obtained from the Animal Experimentation Ethics Committee of The University of Queensland. Adult male Sprague-Dawley (SD) rats (222±4 g) were used for this study. Rats were housed in a temperature controlled room (21+2.0 C) with a 12/12 hour light/dark cycle. Food and water were available ad libitum. Initiation of drug administration occurred at 8-11 weeks post-STZ administration for rats in Experiment 1 (PCT-001) and at 10-12 weeks post-STZ administration for rats in Experiment 2 (PCT-007).
(§2) Test Article Tranilast was supplied by the Sponsor and stored at −4° C. until use. Gabapentin (100 mg/kg, dissolved in water for injection) was utilized as the positive control for this study.
(§3) Test Article and Vehicle Preparation Test article formulations were prepared freshly on the day of administration by weighing the appropriate amount of bulk powder and suspending it in the required volume of vehicle. Carboxymethyl cellulose ((CMC) 0.5% in water for injection) was utilized as the vehicle for this study.
(§4) Test Article Administration. […] The maximum oral gavage volume administered in this study was […]. 4.4
(§5) STZ-Diabetic Rat Model of Painful Diabetic Neuropathy. Painful diabetic neuropathy is a common long-term complication of diabetes in humans that develops as a result of a sustained biochemical nerve injury. […] Following the induction of diabetes with intravenous STZ at 70-80 mg/kg, it generally takes 6-8 wks for tactile allodynia, the defining symptom of PDN, to fully develop in both rat hindpaws.
(§6) Induction of STZ-Diabetes in Rats. On day 0, rats were anaesthetized with 3% isoflurane:97% O2 and a short polyethylene cannula (0.5 mm ID, 0.8 mm OD) was inserted into the jugular vein to facilitate the intravenous (i.v.) administration of a single dose of streptozotocin (STZ: 70-80 mg/kg). After STZ injection, the cannula was removed and the jugular vein was tied off and the wound was closed. Rats received subcutaneous benzylpenicillin (60 mg) prior to surgery to prevent infection and were kept warm during surgical recovery. Rats were housed singly prior to further experimentation and were monitored daily from the time of STZ administration with regard to general health and well-being.
(§7) Von Frey Assessment of Paw Withdrawal Thresholds. Calibrated von Frey filaments were used to determine the lowest mechanical threshold required to evoke a brisk paw withdrawal reflex in the rat hindpaws. Briefly, rats were transferred individually to wire mesh testing cages (20 cm×20 cm×20 cm) and allowed to acclimatize for approximately 10-20 min prior to von Frey testing. Commencing with the von Frey filament that produced the 6 g force, the filament was applied to the plantar surface of the hindpaw until the filament buckled slightly. Absence of a response after 3 s prompted use of the next filament of increasing weight. A withdrawal response within 3 s prompted use of the next filament of decreasing weight. Filaments used produced buckling weights of 2, 4, 6, 8, 10, 12, 14, 16, 18 and 20 g. […] Tactile allodynia is regarded as being fully developed when von Frey PWTs in the injured hindpaws are <6 g.
Restoring von-Frey PWTs in the hindpaws from <6 g to pre-STZ surgery levels (12±2 g) is the treatment goal representing full reversal of tactile allodynia. If drug treatment increases PWTs above pre-surgical baseline values (i.e. >12±2 g), such a response is classified as antinociception. Before administration of STZ, baseline von Frey measurements were assessed. Following STZ administration, baseline PWTs were assessed in the hindpaws at week 8-11 to confirm the development of diabetes-induced tactile allodynia.
Dose-Response Curve for Tranilast in Drug-Naive STZ-Diabetic Rats. […]

STZ-diabetic rats [2] = assay: von Frey paw withdrawal thresholds, STZ-diabetic rats given multiple dosing regimens (washout protocol), Example 1; settings: gabapentin 100 mg/kg s.c.
Experimental: as §1, §2, §3, §4, §5, §6, §7
Restoring von-Frey PWTs in the hindpaws from <6 g to pre-STZ surgery levels (12±2 g) is the treatment goal representing full reversal of tactile allodynia. If drug treatment increases PWTs above pre-surgical baseline values (i.e. >12±2 g), such a response is classified as antinociception. Before administration of STZ, baseline von Frey measurements were assessed. Following STZ administration, baseline PWTs were assessed in the hindpaws at week 8-11 to confirm the development of diabetes-induced tactile allodynia. […]

STZ-diabetic rats [3] = assay: Behavioural observations / adverse effects in STZ-diabetic rats; settings: gabapentin 100 mg/kg s.c., 7 consecutive twice-daily bolus doses
Source text: Behavioural Observations. STZ-diabetic rats were monitored for visible and audible signs of distress throughout the testing period. The visible signs of distress included behavioural changes such as complete immobility, movement with abnormal gait, agitation, aggression, wet dog shakes, excessive grooming, restlessness with constant movement, repeated sudden movements or staring.

[4] = gabapentin 100 mg/kg s.c., 7th twice-daily dose
[5] = gabapentin 100 mg/kg s.c., after 7th consecutive twice-daily dose

NCC1(CC(=O)O)CCCCC1 [Gabapentin]
Baseline PWT thresholds assessed prior to dose 1, 3, 5 and 7 ([1]; gabapentin 100 mg/kg s.c. twice-daily): not significantly different | Mean (±SEM) von Frey Paw Withdrawal threshold assessed prior to dose ([1]; gabapentin 100 mg/kg s.c. twice-daily, prior to dose 1): 3.7 ± 0.6 g | Mean (±SEM) von Frey Paw Withdrawal threshold assessed prior to dose ([1]; gabapentin 100 mg/kg s.c. twice-daily, prior to dose 3): 4.0 ± 0 g | Mean (±SEM) von Frey Paw Withdrawal threshold assessed prior to dose ([1]; gabapentin 100 mg/kg s.c. twice-daily, prior to dose 5): 4.7 ± 0.5 g | Mean (±SEM) von Frey Paw Withdrawal threshold assessed prior to dose ([1]; gabapentin 100 mg/kg s.c. twice-daily, prior to dose 7): 4.5 ± 0.4 g | Mean (±SEM) von Frey Paw Withdrawal threshold following the 7th consecutive dose ([1]; gabapentin 100 mg/kg s.c. twice-daily, time 0 h (pre-dose)): 4.5 ± 0.2 g | Mean (±SEM) von Frey Paw Withdrawal threshold following the 7th consecutive dose ([1]; gabapentin 100 mg/kg s.c. twice-daily, time 0 h (pre-dose), listed as gabapentin): 4.5 (±0.2) g | Mean (±SEM) von Frey Paw Withdrawal threshold following the 7th consecutive dose ([1]; gabapentin 100 mg/kg s.c. twice-daily, time 0.15 h): 5.75 ± 0.2 g | Mean (±SEM) von Frey Paw Withdrawal threshold following the 7th consecutive dose ([1]; gabapentin 100 mg/kg s.c. twice-daily, time 0.5 h): 6.25 ± 0.2 g | Mean (±SEM) von Frey Paw Withdrawal threshold following the 7th consecutive dose ([1]; gabapentin 100 mg/kg s.c. twice-daily, time 0.75 h): 7.5 ± 0.6 g | Mean (±SEM) von Frey Paw Withdrawal threshold following the 7th consecutive dose ([1]; gabapentin 100 mg/kg s.c. twice-daily, time 1 h): 8.5 ± 0.5 g | Mean (±SEM) von Frey Paw Withdrawal threshold following the 7th consecutive dose ([1]; gabapentin 100 mg/kg s.c. twice-daily, time 1.25 h): 9.0 ± 1.0 g | Mean (±SEM) von Frey Paw Withdrawal threshold following the 7th consecutive dose ([1]; gabapentin 100 mg/kg s.c. twice-daily, time 1.25 h, listed as gabapentin): 9.0 (±1.0) g | Mean (±SEM) von Frey Paw Withdrawal threshold following the 7th consecutive dose ([1]; gabapentin 100 mg/kg s.c. twice-daily, time 1.5 h): 9.0 ± 0.7 g | Mean (±SEM) von Frey Paw Withdrawal threshold following the 7th consecutive dose ([1]; gabapentin 100 mg/kg s.c. twice-daily, time 2 h): 7.0 ± 0.4 g | Mean (±SEM) von Frey Paw Withdrawal threshold following the 7th consecutive dose ([1]; gabapentin 100 mg/kg s.c. twice-daily, time 3 h): 6.5 ± 0.3 g | Relief of tactile allodynia in the hindpaws ([1]; gabapentin 100 mg/kg s.c., 7 consecutive twice-daily doses): significant relief of tactile allodynia | Mean duration of action [1, 4]: > 3 h | Time of peak anti-allodynia post-dosing [1, 4]: 1 to 1.5 h | Mean (±SEM) AUC (area under the normalized PWT versus time curve) [1, 5]: 8.3 ± 0.4 | Mean (±SEM) Peak response (PWT) [1, 5]: 9.0 ± 1.0 | Mean (±SEM) % MPR at peak ([1]; gabapentin 100 mg/kg s.c., after 7th consecutive twice-daily dose, 100% MPR = full reversal of tactile allodynia): 75.8 ± 17.2% | % MPR at the time of peak effect compared with vehicle ([1]; gabapentin s.c. 100 mg/kg, 7th consecutive twice-daily dose): significantly greater than that for vehicle | Relief of tactile (mechanical) allodynia in the hindpaws (STZ-diabetic rats [2]; 7 consecutive twice-daily doses, multiple dosing regimens): significant relief of tactile (mechanical) allodynia | Mean (±SEM) PWT at the mean time of peak response (STZ-diabetic rats [2]; 7th twice-daily dose, 1 h post-dosing): 11.0 (±1.0) g | Time of peak anti-allodynia post-dosing (STZ-diabetic rats [2]; 7th twice-daily dose, multiple dosing regimens): 0.75 to 1.25 h | Mean (±SEM) PWT pre-dose (STZ-diabetic rats [2]; 7th twice-daily dose, pre-dose): 4.5 (±0.5) g | Adverse (behavioural) effects (STZ-diabetic rats [3]): no discernible adverse effects; also recorded: did not produce discernible adverse behavioural effects
